From the CheMixHub drug solubility set

Experiment: xn = mol fraction of the nth substance listed, in the solute-free solvent

CC(C)=CCCC(C)C1CCC2(C)C3=C(CCC12C)C1(C)CCC(O)C(C)(C)C1CC3 (configuration not stated) + CO + O
solubility (g/100 g solution)
Conditions	296.67 K	306.81 K	316.94 K	328.97 K	338.78 K
x2 = 0.0229	8.14e-06	1.37e-05	3.09e-05	6.98e-05	0.000153
x2 = 0.09675	8.15e-06	1.39e-05	3.32e-05	8.15e-05	0.000161
x2 = 0.3065	7.26e-06	1.51e-05	3.94e-05	8.99e-05	0.000193
x2 = 0.5109	0.00011	0.000197	0.000378	0.000796	0.00195
x2 = 0.8048	0.0189	0.0422	0.0785	0.161	–

Nc1cccc(S(=O)(=O)c2cccc(N)c2)c1 + CO + O
solubility (g/100 g solution)
Conditions	283.15 K	288.15 K	293.15 K	298.15 K	303.15 K	308.15 K	313.15 K	318.15 K	323.15 K	328.15 K
x2 = 0.05881	0.0853	0.113	0.149	0.202	0.26	0.333	0.429	0.552	0.675	0.867
x2 = 0.1233	0.182	0.244	0.31	0.4	0.526	0.654	0.83	1.04	1.28	1.59
x2 = 0.1942	0.315	0.413	0.533	0.675	0.849	1.08	1.34	1.67	2.05	2.48
x2 = 0.2727	0.512	0.66	0.84	1.04	1.32	1.63	2	2.41	2.93	3.56
x2 = 0.3599	0.734	0.92	1.16	1.44	1.77	2.18	2.64	3.19	3.81	4.63
x2 = 0.4576	0.977	1.22	1.53	1.89	2.32	2.81	3.41	4.06	4.85	5.78
x2 = 0.5675	1.28	1.57	1.95	2.42	2.93	3.58	4.23	5.08	5.95	7.08
x2 = 0.6923	1.59	1.95	2.37	2.95	3.56	4.28	5.14	6.1	7.13	8.38
x2 = 0.835	1.93	2.32	2.83	3.42	4.15	4.97	5.91	6.97	8.2	9.54

OCCN(CCO)c1nc(N2CCCCC2)c2nc(N(CCO)CCO)nc(N3CCCCC3)c2n1 + CO + O
solubility (g/100 g solution)
Conditions	293.15 K	298.15 K	303.15 K	308.15 K	313.15 K	318.15 K	323.15 K	328.15 K
x2 = 0.3	0.0465	0.0712	0.121	0.178	0.281	0.39	0.543	0.757
x2 = 0.4	0.197	0.312	0.48	0.676	1.01	1.48	2.27	3.26
x2 = 0.5	0.513	0.826	1.16	1.64	2.54	3.82	6.13	9.01
x2 = 0.6	1.12	1.6	2.21	3.21	4.77	7.29	11.6	18
x2 = 0.7	1.8	2.43	3.45	5.11	7.41	11.5	17.4	26.3
x2 = 0.8	2.43	3.31	4.57	6.51	9.53	14.1	20.9	29.2
x2 = 0.9	2.81	3.85	5.46	7.53	10.9	15.8	22.7	31.9

c1ccc2[nH]c(-c3cscn3)nc2c1 + CO + O
solubility (g/100 g solution)
Conditions	283.15 K	288.15 K	293.15 K	298.15 K	303.15 K	308.15 K	313.15 K	318.15 K	323.15 K
x2 = 0.05881	0.00229	0.00287	0.00369	0.00466	0.00574	0.00699	0.00862	0.0104	0.0128
x2 = 0.1233	0.0131	0.0159	0.0194	0.0238	0.0278	0.0335	0.0401	0.0473	0.0561
x2 = 0.1942	0.0339	0.0408	0.0481	0.0566	0.0663	0.0786	0.0909	0.105	0.122
x2 = 0.2727	0.0719	0.0844	0.101	0.119	0.139	0.161	0.187	0.216	0.246
x2 = 0.3599	0.131	0.154	0.181	0.206	0.242	0.278	0.317	0.364	0.412
x2 = 0.4576	0.21	0.243	0.283	0.328	0.368	0.419	0.477	0.541	0.616
x2 = 0.5675	0.329	0.373	0.425	0.486	0.554	0.62	0.697	0.779	0.874
x2 = 0.6923	0.478	0.542	0.614	0.69	0.779	0.87	0.967	1.07	1.19
x2 = 0.835	0.643	0.725	0.815	0.914	1.02	1.13	1.25	1.38	1.52

Cl.N=C(N)N + COCCO + CCCO
solubility (g/100 g solution)
Conditions	278.15 K	283.15 K	288.15 K	293.15 K	298.15 K	303.15 K	308.15 K	313.15 K	318.15 K	323.15 K
x2 = 0.08075	10.4	11.1	12.4	13.1	14.6	15.7	16.7	17.6	19.2	20.2
x2 = 0.253	17.4	18.7	20.1	20.9	21.8	23.2	24.1	24.9	25.7	26.9
x2 = 0.4413	23.9	24.8	25.9	26.6	27.7	28.3	29.1	30	30.9	31.4
x2 = 0.6479	29.4	30.1	30.7	31.8	32.2	33.2	33.8	34.3	35	35.6
x2 = 0.8768	32.5	33.2	34.3	34.9	35.8	36.6	37.1	38.3	38.9	39.5

Nc1ccc(Oc2ccc(N)cc2)cc1 + COCCO + CCO
solubility (g/100 g solution)
Conditions	293.15 K	298.15 K	303.15 K	308.15 K	313.15 K	318.15 K	323.15 K	328.15 K	333.15 K
x2 = 0.06303	0.499	0.623	0.747	0.912	1.12	1.28	1.53	1.85	2.05
x2 = 0.1315	0.717	0.756	1.15	1.31	1.47	1.66	2.05	2.13	2.67
x2 = 0.206	1.06	1.1	1.51	1.67	1.81	2.26	2.59	2.89	3.33
x2 = 0.2875	1.41	1.52	2.06	2.16	2.37	2.9	3.32	3.5	4.01
x2 = 0.3771	1.82	2.06	2.54	2.67	3.1	3.47	4.03	4.26	4.95
x2 = 0.4759	2.25	2.54	3.08	3.31	3.71	4.25	4.81	4.96	5.85
x2 = 0.5855	2.84	3.2	3.71	4.1	4.42	5.1	5.68	6.03	6.84
x2 = 0.7077	3.66	3.97	4.45	4.86	5.25	6.05	6.65	7.22	7.97
x2 = 0.8449	4.52	4.75	5.33	5.75	6.21	6.99	7.7	8.23	9.05
